# Laboratory results reported in patent publication US20220282217A1, “COMPOSITIONS AND METHODS FOR PREPARING T CELL COMPOSITIONS AND USES THEREOF” (priority 2019, published 2022).
# Where a SMILES comes first, the peptide text is derived from it.
# Assays:
# HLA-A02.01 [1] = target: T1, HLA-A02.01 (Homo sapiens, UniProt P04439, D140Y/D185E/D98H/E176V/E277Q/G131W/G231S/I119V/I121R/I166T/I218V/N151K/N90K/P208A/P217A/Q86G/Q94H/R138H/R169H); assay: Class I MHC peptide binding stability (pMHC-I dissociation, 125I-labeled light chain); settings: for Stability (T1/2 (h)): allele A02.01; for Stability (half-life (hr.)): EGFR T790M peptides, HLA allele A02.01
# T1 construct: made in house; host or cells: E. coli
# HLA-A24.02 = assay: Class I MHC peptide binding affinity (displacement of radiolabeled reference peptide); parameters: species or system human; settings: allele A24.02; read-out: Observed Affinity (IC50; (nM))
# HLA-A02.01 [2] = target: HLA-A02.01 (Homo sapiens, UniProt P04439, D140Y/D185E/D98H/E176V/E277Q/G131W/G231S/I119V/I121R/I166T/I218V/L300P/L318F/N151K/N90K/P208A/P217A/Q86G/Q94H/R138H/R169H/T345S); assay: as above; settings: for IC50: allele A02.01, read-out: Observed Affinity (IC50, (nM)); for Kd: EGFR T790M peptides, HLA allele A02.01, read-out: Affinity
# How it was run: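 Peptides compete against a prebound radiolabeled reference on MHCI over 2 days at several concentrations.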
# HLA-A03.01 = HLA-A03.01 (Homo sapiens, UniProt P04439); assay: as above; settings: allele A03.01; read-out: Observed Affinity (IC50; (nM))
IC50 (HLA-A24.02) [nM],Compound,Stability (T1/2 (h)) (HLA-A02.01 [1]) [h],IC50 (HLA-A02.01 [2]) [nM],also measured
–,CC(C)C[C@H](NC(=O)[C@@H](N)CCCNC(=N)N)C(=O)N[C@@H](CO)C(=O)N[C@@H](CO)C(=O)N[C@@H](CS)C(=O)N[C@H](C(=O)N1CCC[C@H]1C(=O)N[C@H](C(=O)N[C@@H](C)C(=O)O)C(C)C)C(C)C,18.7,–,IC50 (HLA-A03.01): 439 nM
73.4,CC[C@H](C)[C@H](NC(=O)[C@H](Cc1ccc(O)cc1)NC(=O)[C@H](CS)NC(=O)[C@H](Cc1ccccc1)NC(=O)[C@@H](N)Cc1ccccc1)C(=O)N[C@@H](CC(C)C)C(=O)N[C@@H](CC(N)=O)C(=O)N[C@H](C(=O)N[C@@H](CCSC)C(=O)N[C@@H](Cc1ccccc1)C(=O)O)[C@@H](C)O (H-FFCYILNTMF-OH; N-terminus and C-terminus assumed),–,–,–
643,CC(C)C[C@H](NC(=O)[C@H](CS)NC(=O)[C@H](CO)NC(=O)[C@H](Cc1ccccc1)NC(=O)[C@H](CC(C)C)NC(=O)[C@H](CCCCN)NC(=O)[C@H](Cc1ccccc1)NC(=O)CN)C(=O)N[C@@H](CO)C(=O)N[C@@H](Cc1ccccc1)C(=O)O (H-GFKLFSCLSF-OH; N-terminus and C-terminus assumed),–,–,–
13.7,CC(C)C[C@H](NC(=O)[C@H](CC(C)C)NC(=O)[C@H](CCC(=O)O)NC(=O)[C@@H]1CCCN1C(=O)[C@H](Cc1ccccc1)NC(=O)[C@@H](N)CCCCN)C(=O)N[C@@H](CS)C(=O)N[C@H](C(=O)N[C@@H](Cc1c[nH]c2ccccc12)C(=O)O)C(C)C (H-KFPELLCVW-OH; N-terminus and C-terminus assumed),–,–,–
–,CC(C)C[C@H](NC(=O)[C@H](Cc1ccccc1)NC(=O)[C@H](CO)NC(=O)[C@H](CC(C)C)NC(=O)[C@H](CS)NC(=O)[C@H](CO)NC(=O)[C@H](Cc1ccccc1)NC(=O)[C@H](CC(C)C)NC(=O)[C@@H](N)CCCCN)C(=O)N[C@@H](CO)C(=O)O (H-KLFSCLSFLS-OH; N-terminus and C-terminus assumed),–,0.6,IC50 (HLA-A03.01): 104 nM
828,CC[C@H](C)[C@H](NC(=O)[C@H](Cc1c[nH]c2ccccc12)NC(=O)[C@H](CC(C)C)NC(=O)[C@@H]1CCCN1C(=O)[C@H](CO)NC(=O)[C@H](CCCNC(=N)N)NC(=O)[C@H](CC(C)C)NC(=O)[C@@H](N)CCCCN)C(=O)N[C@@H](Cc1ccccc1)C(=O)O (H-KLRSPLWIF-OH; N-terminus and C-terminus assumed),–,–,–
60.1,CC[C@H](C)[C@H](NC(=O)[C@H](Cc1ccc(O)cc1)NC(=O)[C@H](CC(C)C)NC(=O)[C@@H](N)CC(C)C)C(=O)N[C@H](C(=O)N[C@@H](C)C(=O)N[C@@H](Cc1ccccc1)C(=O)N[C@@H](Cc1ccccc1)C(=O)N[C@@H](CC(C)C)C(=O)N[C@@H](CC(C)C)C(=O)O)[C@@H](C)O (H-LLYITAFFLL-OH; N-terminus and C-terminus assumed),–,323,–
0.8,CSCC[C@H](NC(=O)[C@H](CCC(=O)O)NC(=O)[C@H](CC(C)C)NC(=O)[C@H](CC(C)C)NC(=O)[C@H](CC(C)C)NC(=O)CNC(=O)[C@H](Cc1ccc(O)cc1)NC(=O)[C@@H](N)CC(C)C)C(=O)N[C@@H](CC(C)C)C(=O)O (H-LYGLLLEML-OH; N-terminus and C-terminus assumed),–,–,–
45.3,CC[C@H](C)[C@H](NC(=O)[C@H](Cc1ccc(O)cc1)NC(=O)[C@@H](N)CC(C)C)C(=O)N[C@H](C(=O)N[C@@H](C)C(=O)N[C@@H](Cc1ccccc1)C(=O)N[C@@H](Cc1ccccc1)C(=O)N[C@@H](Cc1ccccc1)C(=O)N[C@@H](CS)C(=O)N[C@@H](Cc1c[nH]c2ccccc12)C(=O)O)[C@@H](C)O (H-LYITAFFFCW-OH; N-terminus and C-terminus assumed),–,–,–
0.1,CC[C@H](C)[C@H](NC(=O)[C@H](Cc1ccc(O)cc1)NC(=O)[C@@H](N)CC(C)C)C(=O)N[C@H](C(=O)N[C@@H](C)C(=O)N[C@@H](Cc1ccccc1)C(=O)N[C@@H](Cc1ccccc1)C(=O)N[C@@H](CC(C)C)C(=O)N[C@@H](CC(C)C)C(=O)O)[C@@H](C)O (H-LYITAFFLL-OH; N-terminus and C-terminus assumed),–,–,–
0.4,CC[C@H](C)[C@H](NC(=O)[C@H](Cc1ccc(O)cc1)NC(=O)[C@@H](N)CC(C)C)C(=O)N[C@H](C(=O)N[C@@H](C)C(=O)N[C@@H](Cc1ccccc1)C(=O)N[C@@H](Cc1ccccc1)C(=O)N[C@@H](CC(C)C)C(=O)N[C@@H](CC(C)C)C(=O)N[C@@H](CC(=O)O)C(=O)O)[C@@H](C)O (H-LYITAFFLLD-OH; N-terminus and C-terminus assumed),–,–,–
332,CC[C@H](C)[C@H](NC(=O)[C@H](CCCCN)NC(=O)[C@H](CO)NC(=O)[C@H](CCC(=O)O)NC(=O)[C@H](C)NC(=O)[C@H](CCCCN)NC(=O)[C@H](CC(C)C)NC(=O)[C@H](Cc1ccccc1)NC(=O)[C@@H](N)CCSC)C(=O)O (H-MFLKAESKI-OH; N-terminus and C-terminus assumed),–,–,–
28.2,CC(C)C[C@H](NC(=O)[C@@H](NC(=O)[C@H](CO)NC(=O)[C@H](CO)NC(=O)[C@H](CC(C)C)NC(=O)[C@@H](N)CCCNC(=N)N)C(C)C)C(=O)N[C@@H](CCC(N)=O)C(=O)N[C@@H](CCCNC(=N)N)C(=O)N[C@@H](Cc1ccccc1)C(=O)O (H-RLSSVLQRF-OH; N-terminus and C-terminus assumed),–,–,–
8.7,CSCC[C@H](NC(=O)[C@@H](N)CCCNC(=N)N)C(=O)N1CCC[C@H]1C(=O)N1CCC[C@H]1C(=O)N[C@@H](CS)C(=O)N[C@@H](CC(C)C)C(=O)N[C@@H](C)C(=O)N[C@@H](CC(N)=O)C(=O)N[C@@H](Cc1ccccc1)C(=O)O (H-RMPPCLANF-OH; N-terminus and C-terminus assumed),–,–,–
141,CSCC[C@H](NC(=O)[C@H](CCCNC(=N)N)NC(=O)[C@@H](N)CCCNC(=N)N)C(=O)N1CCC[C@H]1C(=O)N1CCC[C@H]1C(=O)N[C@@H](CS)C(=O)N[C@@H](CC(C)C)C(=O)N[C@@H](C)C(=O)N[C@@H](CC(N)=O)C(=O)N[C@@H](Cc1ccccc1)C(=O)O (H-RRMPPCLANF-OH; N-terminus and C-terminus assumed),–,–,–
–,CC[C@H](C)[C@H](NC(=O)[C@H](Cc1ccc(O)cc1)NC(=O)[C@H](CC(C)C)NC(=O)[C@H](CO)NC(=O)[C@H](CC(N)=O)NC(=O)[C@H](CS)NC(=O)[C@H](CCC(=O)O)NC(=O)[C@H](Cc1c[nH]cn1)NC(=O)[C@H](CC(C)C)NC(=O)[C@@H](N)C(C)C)C(=O)O (H-VLHECNSLYI-OH; N-terminus and C-terminus assumed),5.1,10,IC50 (HLA-A03.01): 10500 nM
–,CSCC[C@H](NC(=O)[C@@H](N)C(C)C)C(=O)N[C@@H](C)C(=O)NCC(=O)N[C@@H](CC(C)C)C(=O)NCC(=O)N[C@@H](CO)C(=O)N1CCC[C@H]1C(=O)N[C@@H](Cc1ccc(O)cc1)C(=O)N[C@H](C(=O)O)C(C)C (H-VMAGLGSPYV-OH; N-terminus and C-terminus assumed),2.9,102,IC50 (HLA-A03.01): 11200 nM

Compound,IC50 (HLA-A24.02) [nM],Stability (T1/2 (h)) (HLA-A02.01 [1]) [h],IC50 (HLA-A02.01 [2]) [nM],also measured
CC[C@H](C)[C@H](NC(=O)[C@@H]1CCCN1C(=O)[C@H](CCCNC(=N)N)NC(=O)[C@H](Cc1c[nH]c2ccccc12)NC(=O)[C@H](CC(N)=O)NC(=O)[C@H](CCSC)NC(=O)CNC(=O)CNC(=O)[C@H](CCSC)NC(=O)[C@@H](N)CS)C(=O)O,4450,0.4,346,–
CC[C@H](C)[C@H](N)C(=O)N[C@@H](CCSC)C(=O)N[C@@H](CCC(N)=O)C(=O)N[C@@H](CC(C)C)C(=O)N[C@@H](CCSC)C(=O)N1CCC[C@H]1C(=O)N[C@@H](Cc1ccccc1)C(=O)NCC(=O)N[C@@H](CS)C(=O)N[C@@H](CC(C)C)C(=O)O,18100,0.5,837,Stability (half-life (hr.)) (HLA-A02.01 [1]): 30.94 min; Kd (HLA-A02.01 [2]): 653 nM
CSCC[C@H](NC(=O)[C@H](CC(C)C)NC(=O)[C@H](CCC(N)=O)NC(=O)[C@@H](N)CCSC)C(=O)N1CCC[C@H]1C(=O)N[C@@H](Cc1ccccc1)C(=O)NCC(=O)N[C@@H](CS)C(=O)N[C@@H](CC(C)C)C(=O)N[C@@H](CC(C)C)C(=O)O,23600,0.4,20,Stability (half-life (hr.)) (HLA-A02.01 [1]): 22.87 min; Kd (HLA-A02.01 [2]): 16.3 nM
CC[C@H](C)[C@H](NC(=O)[C@@H](NC(=O)[C@H](CC(C)C)NC(=O)[C@@H](NC(=O)[C@@H]1CCCN1C(=O)[C@H](CCCNC(=N)N)NC(=O)[C@H](CCCNC(=N)N)NC(=O)[C@H](CC(N)=O)NC(=O)[C@H](CCSC)NC(=O)[C@@H](N)CO)[C@@H](C)CC)[C@@H](C)O)C(=O)O,16300,0.3,1200,–
CC[C@H](C)[C@H](NC(=O)[C@@H]1CCCN1C(=O)[C@H](Cc1ccccc1)NC(=O)[C@H](Cc1ccccc1)NC(=O)[C@H](CCCNC(=N)N)NC(=O)[C@H](C)NC(=O)[C@H](CC(C)C)NC(=O)[C@H](CCC(N)=O)NC(=O)[C@@H](N)[C@@H](C)O)C(=O)O,52,–,19,–
CC[C@H](C)[C@H](NC(=O)[C@H](CC(C)C)NC(=O)[C@H](CCC(N)=O)NC(=O)[C@@H](N)C(C)C)C(=O)N[C@@H](CCSC)C(=O)N[C@@H](CCC(N)=O)C(=O)N[C@@H](CC(C)C)C(=O)N[C@@H](CCSC)C(=O)N1CCC[C@H]1C(=O)N[C@@H](Cc1ccccc1)C(=O)O,4560,–,5490,Kd (HLA-A02.01 [2]): 4940 nM
